Test results from US20130171224A1, “TREATMENT OF BIOFILMS” (priority 2010, published 2013).

Legend:
Format in all cases: cell-based
[1] = tested on: Candida albicans ATCC10231 biofilm; test: Combinational effects between ionic silver and polyphosphate (FIC) on NUNC biofilms; set-up: MIC in combination (A) / MIC in combination (B): unit not given beside the values; settings: 72 hour C. albicans biofilm
Procedure: (§1) The bacteria used in this study were Staphylococcus aureus ATCC6538, Candida albicans ATCC10231 and Pseudomonas aeruginosa ATCC9027. Pure cultures were maintained on nutrient agar at 37° C. The NUNC-TSP transferable solid phase screening system (NUNC, Roskilde, Denmark) was used to generate up to 96 reproducible biofilms in a microtitre plate. Briefly, a suspension of each bacteria was prepared in 0.9% saline solution and adjusted to a McFarland's standard no. 1.0. This bacterial suspension was then diluted 1:30 in sterile TSB and 150 μl aliquots aseptically transferred to a 96 well Calgary device. […] Biofilms were generated as described previously. […] Sigma-Aldrich, Germany) was prepared in water (40 mg/ml) and filter sterilised (0.22 μm). Concentrations of polyphosphate were prepared horizontally across the NUNC 96 well plate, whilst ionic silver was prepared vertically. […] This permitted a diverse array of drug concentration combinations to be tested in a single investigation.

[2] = tested on: Pseudomonas aeruginosa ATCC9027 biofilm; test: as above; set-up: MIC in combination (A) / MIC in combination (B): unit not given beside the values; settings: for MIC alone mg/ml (B): agent B alone; for MIC in combination (B): agent B in combination with A; for MIC alone mg/ml (A): agent A alone; for MIC in combination (A): agent A in combination with B
Procedure: as §1

[3] = tested on: Staphylococcus aureus ATCC6538 biofilm; test: as above; set-up: MIC in combination (A) / MIC in combination (B): unit not given beside the values; settings: 24 hour S. aureus biofilm
Procedure: as §1

[4] = tested on: Pseudomonas aeruginosa ATCC9027 biofilm; test: Challenge of NUNC-TSP biofilms to polyphosphate (MIC, MBC, MBEC)
Procedure: (§2) The bacteria used in this study were Staphylococcus aureus ATCC6538, Candida albicans ATCC10231 and Pseudomonas aeruginosa ATCC9027. Pure cultures were maintained on nutrient agar at 37° C. The NUNC-TSP transferable solid phase screening system (NUNC, Roskilde, Denmark) was used to generate up to 96 reproducible biofilms in a microtitre plate. Briefly, a suspension of each bacteria was prepared in 0.9% saline solution and adjusted to a McFarland's standard no. 1.0. This bacterial suspension was then diluted 1:30 in sterile TSB and 150 μl aliquots aseptically transferred to a 96 well Calgary device. Plates were incubated for 24 and 72 hours and then submerged in 150 μl 0.9% saline solution to remove planktonic bacteria from the biofilm surface. A stock solution of polyphosphate (80 mg/ml) was prepared in distilled water and filter sterilised (0.22 μm). This was subsequently diluted 1:2 in triplicate across the wells in TSB to a final concentration of 0.04 mg/ml. Each well also consisted of positive controls (TSB only in absence of antimicrobial agent) and negative controls. NUNC solid phase lids were subsequently transferred to this challenge plate and incubated overnight (37° C.). Wells were visually inspected for turbidity signifying bacterial growth. The minimum inhibitory concentration was defined as the lowest concentration of polyphosphate to prevent bacterial growth. Aliquots of wells (10 μl) showing no visual signs of turbidity were transferred to fresh TSB stocks and incubated for a further 8 hours (37° C.). This allowed the determination of the minimum bactericidal concentration (MBC). Subsequent to this, challenged NUNC peg lids were transferred to a 96 well recovery plate containing TSB media only. Plates were incubated overnight and visualised for bacterial growth. This allowed the determination of the minimum biofilm eradication concentration (MBEC). Any growth in the media corresponded to planktonic bacteria seeding the media from a viable biofilm. Absence of turbidity therefore signified bacterial eradication at this respective concentration of polyphosphate.

[5] = tested on: Staphylococcus aureus ATCC6538 biofilm; test: as above
Procedure: as §2

[6] = 24 hour monospecies P. aeruginosa biofilm
[7] = 24 hour monospecies S. aureus biofilm

O=[N+]([O-])[O-].[Ag+] [silver nitrate, reference compound]
FIC (B) [1]: 0.428 | MIC alone mg/ml (B) ([1]; agent B alone): 0.07 mg/mL | MIC in combination (B) ([1]; agent B in combination with A): 0.03 | FIC (B) ([2]; 24 hour P. aeruginosa biofilm): 0.0625 | MIC alone mg/ml (B) ([2]; 24 hour P. aeruginosa biofilm): 10 mg/mL | MIC in combination (B) ([2]; 24 hour P. aeruginosa biofilm): 0.625 | FIC (B) ([2]; 72 hour P. aeruginosa biofilm): 0.1 | MIC alone mg/ml (B) ([2]; 72 hour P. aeruginosa biofilm): 0.6 mg/mL | MIC in combination (B) ([2]; 72 hour P. aeruginosa biofilm): 0.07 | FIC (B) [3]: 1 | MIC alone mg/ml (B) ([3]; agent B alone): 0.015 mg/mL | MIC in combination (B) ([3]; agent B in combination with A): 0.015

polyphosphate
MBC [4, 6]: >80000 µg/mL | MBEC [4, 6]: >80 mg/mL | MIC [4, 6]: 5000 µg/mL | MIC ([4]; 72 hour P. aeruginosa biofilm): 80000 µg/mL | MBC [5, 7]: 10000 µg/mL | MBEC [5, 7]: 40 to 80 mg/mL | MIC [5, 7]: 1250 µg/mL | MIC ([5]; 72 hour S. aureus biofilm): 20000 µg/mL | FIC (A) [1]: 0.006 | MIC alone mg/ml (A) ([1]; agent A alone): 5 mg/mL | MIC in combination (A) ([1]; agent A in combination with B): 0.03 | FIC (A) ([2]; 24 hour P. aeruginosa biofilm): 0.125 | MIC alone mg/ml (A) ([2]; 24 hour P. aeruginosa biofilm): 5 mg/mL | MIC in combination (A) ([2]; 24 hour P. aeruginosa biofilm): 0.625 | FIC (A) ([2]; 72 hour P. aeruginosa biofilm): 0.5 | MIC alone mg/ml (A) ([2]; 72 hour P. aeruginosa biofilm): 80 mg/mL | MIC in combination (A) ([2]; 72 hour P. aeruginosa biofilm): 40 | FIC (A) [3]: 0.012 | MIC alone mg/ml (A) ([3]; agent A alone): 1.25 mg/mL | MIC in combination (A) ([3]; agent A in combination with B): 0.015
